Measured values taken from the supplement of paper PMC13380429.

What was measured:
Conditions in all cases: 72 h
U2OS [1] = experiment: relative viability EC50 (midpoint between 100% and the lowest measured viability); higher = less toxic
Calu-3 [2] = experiment: as above
HepG2 [3] = experiment: as above
Caco-2 [4] = experiment: as above
U2OS [5] = experiment: drug sensitivity score (DSS) for viability; higher = more toxic; extreme values may be limits of the assay
Calu-3 [6] = experiment: as above
HepG2 [7] = experiment: as above
Caco-2 [8] = experiment: as above
U2OS [9] = experiment: cell viability relative to DMSO; higher = less toxic
Calu-3 [10] = experiment: as above
HepG2 [11] = experiment: as above
Caco-2 [12] = experiment: as above
Vero E6 [13] = experiment: drug sensitivity score (DSS) for viability; higher = more toxic; extreme values may be limits of the assay
Vero E6 [14] = experiment: relative viability EC50 (midpoint between 100% and the lowest measured viability); higher = less toxic
Vero E6 [15] = experiment: cell viability relative to DMSO; higher = less toxic

Structure (SMILES)	relative viability EC50 (U2OS [1]) [µM]	relative viability EC50 (Calu-3 [2]) [µM]	relative viability EC50 (HepG2 [3]) [µM]	relative viability EC50 (Caco-2 [4]) [µM]	drug sensitivity score (U2OS [5])	drug sensitivity score (Calu-3 [6])	drug sensitivity score (HepG2 [7])	drug sensitivity score (Caco-2 [8])	cell viability (U2OS [9]; 1 nM) [%]	cell viability (U2OS [9]; 10 nM) [%]	cell viability (U2OS [9]; 100 nM) [%]	cell viability (U2OS [9]; 1000 nM) [%]	cell viability (U2OS [9]; 10000 nM) [%]	cell viability (Calu-3 [10]; 1 nM) [%]	cell viability (Calu-3 [10]; 10 nM) [%]	cell viability (Calu-3 [10]; 100 nM) [%]	cell viability (Calu-3 [10]; 1000 nM) [%]	cell viability (Calu-3 [10]; 10000 nM) [%]	cell viability (HepG2 [11]; 1 nM) [%]	cell viability (HepG2 [11]; 10 nM) [%]	cell viability (HepG2 [11]; 100 nM) [%]	cell viability (HepG2 [11]; 1000 nM) [%]	cell viability (HepG2 [11]; 10000 nM) [%]	cell viability (Caco-2 [12]; 1 nM) [%]	cell viability (Caco-2 [12]; 10 nM) [%]	cell viability (Caco-2 [12]; 100 nM) [%]	cell viability (Caco-2 [12]; 1000 nM) [%]	cell viability (Caco-2 [12]; 10000 nM) [%]	drug sensitivity score (Vero E6 [13])	relative viability EC50 (Vero E6 [14]) [µM]	cell viability (Vero E6 [15]; 1 nM) [%]	cell viability (Vero E6 [15]; 10 nM) [%]	cell viability (Vero E6 [15]; 100 nM) [%]	cell viability (Vero E6 [15]; 1000 nM) [%]	cell viability (Vero E6 [15]; 10000 nM) [%]
Cc1c(NC(=O)N2CCOCC2)ccc2c1c1ccccc1n2C(C)C [NPY-5RA972]	> 10	> 10	> 10	> 10	0	0	0	0	100	98.2	105	98.6	97.5	109	89.5	105	93.5	96	102	98.5	97.3	118	95.5	92.2	106	98.7	101	95.4	–	–	–	–	–	–	–
CS(=O)(=O)N1CCN(Cc2cc3nc(-c4cccc5[nH]ncc45)nc(N4CCOCC4)c3s2)CC1 [GDC-0941]	0.775	0.438	–	0.158	6.9	11.8	9.2	11.6	–	–	–	–	–	–	–	–	–	–	–	–	–	–	–	–	–	–	–	–	6.5	–	–	–	–	–	–
CCN(CCCCOC(=O)c1ccc(OC)c(OC)c1)C(C)Cc1ccc(OC)cc1 (stereo unspecified) [mebeverine]	> 10	> 10	> 10	> 10	0	0	0	0.6	102	99.4	99.1	102	96.3	95.2	98.3	101	100	93.8	105	112	100	103	91.6	101	96.3	97.2	90.8	83.8	–	–	–	–	–	–	–
COCc1c(-c2ccc(NC(=O)Nc3cc(C(F)(F)F)ccc3F)c(F)c2)c2c(N)ncnn2c1CN1CCOCC1 [ACTB-1003]	1.34	–	0.386	1.35	7.8	5.2	16.2	6.8	97.6	97.1	101	75	23.3	101	87.5	93.9	72.1	65.2	110	104	91.1	18.1	2.1	105	99	102	78.4	32.9	3.7	3.57	95.7	102	101	106	24.8
N[C@@H](C(=O)O)c1cc(O)ccc1Cl [CHPG]	> 10	–	–	> 10	0	–	–	0	97.6	99	98.5	104	103	–	–	–	–	–	–	–	–	–	–	94.2	91.7	94.8	98.7	96	0	> 10	94.9	93.4	92.2	94.6	108
N#Cc1ccnc(N2C(=O)CC[C@H]2C(=O)N(c2cncc(F)c2)[C@H](C(=O)NC2CC(F)(F)C2)c2ccccc2Cl)c1 [ivosidenib]	> 10	> 10	> 10	> 10	0	0	0	0	104	100	104	101	98.3	98.8	109	93.7	104	97.3	97.5	97.7	95.1	106	98.7	105	97.6	94.2	93	104	–	–	–	–	–	–	–
S=C(NCCc1ccccn1)Nc1ccc(Br)cn1 [trovirdine]	> 10	> 10	> 10	> 10	0	0	0	0	104	100	98.4	104	98.7	89.2	96.2	101	102	108	103	105	102	106	92.1	94.9	91.6	98.4	90	98.1	–	–	–	–	–	–	–
O=S(=O)(O)Oc1ccc(C(c2ccc(OS(=O)(=O)O)cc2)c2ccccn2)cc1 [sodium-picosulfate]	> 10	> 10	–	> 10	0	0	–	0	102	106	97.1	104	99.1	87.6	95	82.2	100	93.8	–	–	–	–	–	88.4	102	96.3	102	106	–	–	–	–	–	–	–
